Measurements from US7998989B2, “2-Imino-1,3-thiazoline-based compounds and T-type calcium channel inhibitors containing the same” (Korea Institute of Science and Technology, priority 2007, dated 2011).

Tests used:
[1] = biological target: T1, α1G T-type calcium channel (Homo sapiens, UniProt O43497); assay: Assay for % inhibiting activity against T-type calcium channel using FDSS6000 (fluo-3 calcium imaging, KCl activation); assay type: cell-based; conditions: 10 μM; HEK293 cells stably expressing α1G T-type calcium channel and Kir2.1; compounds of the examples
T1 construct: host or cells: HEK293
T1 sequence (O43497 whole entry): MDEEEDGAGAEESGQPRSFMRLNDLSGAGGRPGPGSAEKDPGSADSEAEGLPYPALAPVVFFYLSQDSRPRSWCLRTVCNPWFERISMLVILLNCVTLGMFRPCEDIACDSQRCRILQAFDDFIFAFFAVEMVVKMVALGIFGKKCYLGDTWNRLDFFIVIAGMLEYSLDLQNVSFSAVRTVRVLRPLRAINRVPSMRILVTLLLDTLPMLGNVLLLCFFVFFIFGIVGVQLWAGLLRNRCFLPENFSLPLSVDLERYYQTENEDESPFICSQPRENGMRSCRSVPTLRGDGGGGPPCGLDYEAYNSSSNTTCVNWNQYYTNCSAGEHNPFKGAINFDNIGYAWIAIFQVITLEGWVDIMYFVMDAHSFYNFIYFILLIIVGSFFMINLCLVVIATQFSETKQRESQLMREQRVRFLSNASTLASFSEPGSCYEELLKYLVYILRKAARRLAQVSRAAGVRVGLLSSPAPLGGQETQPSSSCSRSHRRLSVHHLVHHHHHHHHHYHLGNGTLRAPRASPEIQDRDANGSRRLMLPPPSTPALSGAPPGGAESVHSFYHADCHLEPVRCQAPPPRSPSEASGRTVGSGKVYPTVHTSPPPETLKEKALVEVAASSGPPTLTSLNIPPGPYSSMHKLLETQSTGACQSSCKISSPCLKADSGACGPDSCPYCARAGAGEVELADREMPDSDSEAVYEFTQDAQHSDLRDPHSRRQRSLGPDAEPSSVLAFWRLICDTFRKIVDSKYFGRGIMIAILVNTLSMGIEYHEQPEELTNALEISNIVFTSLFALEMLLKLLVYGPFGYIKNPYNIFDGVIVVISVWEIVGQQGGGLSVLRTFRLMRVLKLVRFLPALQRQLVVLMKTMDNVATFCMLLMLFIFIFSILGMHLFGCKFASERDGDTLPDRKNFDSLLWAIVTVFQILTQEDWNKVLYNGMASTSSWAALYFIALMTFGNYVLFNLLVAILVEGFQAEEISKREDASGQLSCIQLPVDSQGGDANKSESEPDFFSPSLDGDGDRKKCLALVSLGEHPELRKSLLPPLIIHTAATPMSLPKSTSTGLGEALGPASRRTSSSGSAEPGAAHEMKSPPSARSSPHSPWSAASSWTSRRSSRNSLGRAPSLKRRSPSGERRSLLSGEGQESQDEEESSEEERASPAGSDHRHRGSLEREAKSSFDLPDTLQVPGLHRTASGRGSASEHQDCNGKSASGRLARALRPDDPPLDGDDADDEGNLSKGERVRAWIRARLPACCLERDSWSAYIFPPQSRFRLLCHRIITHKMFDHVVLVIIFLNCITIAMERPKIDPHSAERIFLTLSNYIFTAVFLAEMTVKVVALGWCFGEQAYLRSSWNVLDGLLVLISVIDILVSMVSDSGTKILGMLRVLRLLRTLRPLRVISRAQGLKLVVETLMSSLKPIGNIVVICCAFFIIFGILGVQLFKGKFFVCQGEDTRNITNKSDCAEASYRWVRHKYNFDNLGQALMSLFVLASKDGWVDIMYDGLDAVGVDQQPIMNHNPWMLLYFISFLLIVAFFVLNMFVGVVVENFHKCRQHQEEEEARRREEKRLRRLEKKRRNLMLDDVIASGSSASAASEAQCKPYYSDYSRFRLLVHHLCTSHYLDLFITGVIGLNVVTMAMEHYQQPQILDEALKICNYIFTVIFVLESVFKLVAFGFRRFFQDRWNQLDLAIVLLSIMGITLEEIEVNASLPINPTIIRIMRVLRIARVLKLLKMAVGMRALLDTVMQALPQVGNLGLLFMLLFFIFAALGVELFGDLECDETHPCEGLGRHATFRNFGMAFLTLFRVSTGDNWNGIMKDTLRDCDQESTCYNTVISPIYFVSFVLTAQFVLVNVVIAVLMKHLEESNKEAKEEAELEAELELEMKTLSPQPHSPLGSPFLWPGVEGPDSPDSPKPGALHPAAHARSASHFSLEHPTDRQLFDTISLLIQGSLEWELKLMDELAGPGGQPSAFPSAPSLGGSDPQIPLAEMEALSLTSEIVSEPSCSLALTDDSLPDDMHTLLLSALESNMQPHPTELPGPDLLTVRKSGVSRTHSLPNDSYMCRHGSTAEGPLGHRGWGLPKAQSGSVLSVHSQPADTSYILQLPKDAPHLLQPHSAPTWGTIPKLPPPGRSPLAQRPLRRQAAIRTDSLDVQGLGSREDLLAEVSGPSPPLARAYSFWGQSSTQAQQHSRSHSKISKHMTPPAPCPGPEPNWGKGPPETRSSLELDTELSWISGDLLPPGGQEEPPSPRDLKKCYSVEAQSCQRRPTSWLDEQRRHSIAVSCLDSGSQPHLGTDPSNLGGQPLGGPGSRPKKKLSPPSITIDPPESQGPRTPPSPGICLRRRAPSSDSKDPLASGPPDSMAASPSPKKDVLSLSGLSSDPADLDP
How it was run: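 HEK293 cells stably expressing α1G and Kir2.1 loaded with 5 μM fluo-3/AM, then in HEPES buffer (pH 7.4) with 10 mM CaCl2. Compound applied 75 s before 75 mM KCl; intracellular Ca2+ read as […] area, % inhibition relative to untreated control.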

[2] = biological target: T1, α1G T-type calcium channel; assay: Electrophysiological whole cell patch clamp measurement of T-type calcium channel current in HEK293 cells; assay type: cell-based; conditions: HEK293 cells expressing α1G; for HEK293cell (% Inhibition) 10 μM: inhibition of peak current; for IC50: read-out: IC50 (a1G)
Description: In the present invention, in order to examine an efficient inhibitor against the T-type calcium channel, a primary assay for T-type calcium channel inhibiting activity was conducted by a high-efficient assay using FDSS6000, wherein mammal HEK293 cell lines (originated from human kidney carcinoma cells) that specifically express α1G of the T-type calcium channel was used for primary assay. Through the primary assay, compounds that show meaningful inhibition effects were selected. The selected compounds were used in a second assay for T-type calcium channel inhibiting activity using an electrophysiological whole cell patch clamp method, wherein mammal HEK293 cell lines (originated from human kidney carcinoma cells) that specifically express α1G of the T-type calcium channel was used for the second assay. Mibefradil, which had been developed as a T-type calcium channel inhibitor, was used as a reference.
10% Fetal bovine serum (FBS) and 1% penicillin/streptomycin (v/v) were added to Dulbecco's modified Eagle's medium (DMEM), to be used as a media solution. The cells were cultured in an incubator under a wet condition of 95% air/5% CO2 and a temperature of 36.5° C. The media solution was refreshed every 3 or 4 days, and the cells were sub-cultured every week. Only the cells that expressed α1G T-type calcium channel were cultured using a G-418 (0.5 mg/ml) solution. The recording of the cells used in the T-type calcium channel activity analysis was conducted at 2-7 days after the cells were culturing on a cover slip coated with poly-L-lysine (0.5 mg/ml) when conducting every sub-culture. For analysis at a single cell level, the T-type calcium channel current was measured by an electrophysiological whole cell patch clamp method using EPC-9 amplifier (HEKA, German).
As solutions for analyzing T-type calcium channel activity, a solution including NaCl 140 mM, CaCl2 2 mM, and HEPES10 mM (pH 7.4, Sigma; 4-(2-hydroxyethyl)piperazine-1-ethanesulfonic acid) was used as an extracellular solution, and a solution including KCl 130 mM, HEPES 10 mM (Sigma), EGTA 11 mM (ethylene glycol-bis(2-aminoethylether)-N,N,N′,N′-tetraacetic acid, Sigma), and MgATP 5 mM (pH 7.4, Sigma) was used as an intracellular solution. The protocol for T-type calcium channel activity that is activated at low voltage is as follows. A micro-glass electrode with resistance of 3-4 MΩ wherein the above-prepared intracellular solution was filled was pricked into a single cell, to make a whole-cell recording mode. Thereafter, the cell membrane potential was fixed to −100 mV, and then the inward current due to the T-type calcium channel activity when hypopolarizing to −30 mV (50 ms duration) was measured every 10 seconds.
Each compound to be tested was dissolved in 100% dimethylsulfoxide (DMSO) to make a 10 mM stock solution. The effect of the compound on the T-type calcium channel current compound was initially examined in the stock solution with the 1000-times diluted concentration of 10 μM (containing 0.1% DMSO) and then examined in the solution with the concentration for IC50 measurement (mostly 0.1 to 100 μM), to obtain an IC50 value. More specifically, the cells were treated in each compound together with the extracellular solution for 30 to 60 seconds, and the inhibition level of peak current induced by the compound was calculated as a percentage, to obtain the % inhibition value as shown in Table 4.

(2-cyclohexylimino-3-methyl-1,3-thiazolidine-4-yl)-N-(4-chloro-2-fluorophenyl)-acetamide hydrochloride [KHG23361]
FDSS (% inhibition)/10uM [1]: 62.4% | HEK293cell (% Inhibition) 10 μM [2]: 71.4 ± 3.4% | IC50 [2]: 4090 ± 700 nM

(2-cyclohexylimino-3-methyl-1,3-thiazolidine-4-yl)-N-(4-chlorobenzyl)-acetamide hydrochloride [KHG24113]
FDSS (% inhibition)/10uM [1]: 54.13% | HEK293cell (% Inhibition) 10 μM [2]: 64.8 ± 1.4% | IC50 [2]: 5400 ± 410 nM

(2-cyclohexylimino-3-methyl-1,3-thiazolidine-4-yl)-N-(4-chlorophenyl)-acetamide hydrochloride [KHG23362]
FDSS (% inhibition)/10uM [1]: 66.17% | HEK293cell (% Inhibition) 10 μM [2]: 89.3 ± 0.9% | IC50 [2]: 530 ± 30 nM

(2-cyclohexylimino-3-methyl-1,3-thiazolidine-4-yl)-N-(4-fluorophenyl)-acetamide hydrochloride [KHG23210]
FDSS (% inhibition)/10uM [1]: 46.69% | HEK293cell (% Inhibition) 10 μM [2]: 59.6 ± 1.5% | IC50 [2]: 6500 ± 500 nM

(2-cyclohexylimino-3-methyl-1,3-thiazolidine-4-yl)-N-(4-isopropylphenyl)-acetamide hydrochloride [KHG23364]
FDSS (% inhibition)/10uM [1]: 53% | HEK293cell (% Inhibition) 10 μM [2]: 97.0 ± 0.7% | IC50 [2]: 870 ± 180 nM

(2-cyclohexylimino-3-methyl-1,3-thiazolidine-4-yl)-N-(4-methylphenyl)-acetamide hydrochloride [KHG24077]
FDSS (% inhibition)/10uM [1]: 46.41% | HEK293cell (% Inhibition) 10 μM [2]: 57.0 ± 1.5% | IC50 [2]: 7220 ± 360 nM

(2-cyclohexylimino-3-methyl-1,3-thiazolidine-4-yl)-N-(4-n-butylphenyl)-acetamide hydrochloride [KHG23365]
FDSS (% inhibition)/10uM [1]: 60.16% | HEK293cell (% Inhibition) 10 μM [2]: 97.6 ± 0.5% | IC50 [2]: 600 ± 60 nM

(2-cyclohexylimino-3-methyl-1,3-thiazolidine-4-yl)-N-(4-phenoxyphenyl)-acetamide hydrochloride [KHG23355]
FDSS (% inhibition)/10uM [1]: 58.95% | HEK293cell (% Inhibition) 10 μM [2]: 88.1 ± 2.0% | IC50 [2]: 1510 ± 170 nM

(2-cyclohexylimino-3-methyl-1,3-thiazolidine-4-yl)-N-(4-trifluoromethylphenyl)-acetamide hydrochloride [KHG24074]
FDSS (% inhibition)/10uM [1]: 65.2% | HEK293cell (% Inhibition) 10 μM [2]: 94.7 ± 0.5% | IC50 [2]: 660 ± 60 nM

[2-(1-adamantyl)imino-3-methyl-1,3-thiazolidine-4-yl]-N-(3,5-ditrifluoromethylphenyl)-acetamide hydrochloride [KHG24241]
FDSS (% inhibition)/10uM [1]: 70.68% | HEK293cell (% Inhibition) 10 μM [2]: 92.2 ± 0.5% | IC50 [2]: 170 ± 20 nM

[2-(1-adamantyl)imino-3-methyl-1,3-thiazolidine-4-yl]-N-(4-bromophenyl)-acetamide hydrochloride [KHG24239]
FDSS (% inhibition)/10uM [1]: 69.55% | HEK293cell (% Inhibition) 10 μM [2]: 96.5 ± 1.3% | IC50 [2]: 610 ± 70 nM

[2-(1-adamantyl)imino-3-methyl-1,3-thiazolidine-4-yl]-N-(4-chlorophenyl)-acetamide hydrochloride [KHG24238]
FDSS (% inhibition)/10uM [1]: 73.31% | HEK293cell (% Inhibition) 10 μM [2]: 95.9 ± 1.8% | IC50 [2]: 530 ± 20 nM

[2-(1-adamantyl)imino-3-methyl-1,3-thiazolidine-4-yl]-N-(4-ethylphenyl)-acetamide hydrochloride [KHG24236]
FDSS (% inhibition)/10uM [1]: 69.55% | HEK293cell (% Inhibition) 10 μM [2]: 94.4 ± 0.6% | IC50 [2]: 230 ± 20 nM

[2-(1-adamantyl)imino-3-methyl-1,3-thiazolidine-4-yl]-N-(4-fluorophenyl)-acetamide hydrochloride [KHG24237]
FDSS (% inhibition)/10uM [1]: 74.81% | HEK293cell (% Inhibition) 10 μM [2]: 91.2 ± 3.1% | IC50 [2]: 770 ± 30 nM

[2-(1-adamantyl)imino-3-methyl-1,3-thiazolidine-4-yl]-N-(4-isopropylphenyl)-acetamide hydrochloride [KHG24243]
FDSS (% inhibition)/10uM [1]: 60.9% | HEK293cell (% Inhibition) 10 μM [2]: 97.0 ± 1.1% | IC50 [2]: 50 ± 10 nM

[2-(1-adamantyl)imino-3-methyl-1,3-thiazolidine-4-yl]-N-(4-methylphenyl)-acetamide hydrochloride [KHG24235]
FDSS (% inhibition)/10uM [1]: 61.65% | HEK293cell (% Inhibition) 10 μM [2]: 93.2 ± 1.9% | IC50 [2]: 1170 ± 80 nM

[2-(1-adamantyl)imino-3-methyl-1,3-thiazolidine-4-yl]-N-(4-phenoxyphenyl)-acetamide hydrochloride [KHG24244]
FDSS (% inhibition)/10uM [1]: 53.67% | HEK293cell (% Inhibition) 10 μM [2]: 90.6 ± 3.6% | IC50 [2]: 920 ± 80 nM

[2-(1-adamantyl)imino-3-methyl-1,3-thiazolidine-4-yl]-N-(4-trifluoromethylphenyl)-acetamide hydrochloride [KHG24240]
FDSS (% inhibition)/10uM [1]: 70.68% | HEK293cell (% Inhibition) 10 μM [2]: 96.2 ± 1.1% | IC50 [2]: 230 ± 20 nM

[2-(1-adamantyl)imino-3-methyl-1,3-thiazolidine-4-yl]-N-(5-chloro-2-fluorophenyl)-acetamide hydrochloride [KHG24242]
FDSS (% inhibition)/10uM [1]: 53.38% | HEK293cell (% Inhibition) 10 μM [2]: 85.2 ± 1.3% | IC50 [2]: 970 ± 140 nM

[2-(1-adamantylimino)-3-cyclopropyl-1,3-thiazolidine-4-yl]-N-(4-isopropylphenyl)-acetamide hydrochloride [KHG24788]
FDSS (% inhibition)/10uM [1]: 72.88% | HEK293cell (% Inhibition) 10 μM [2]: 95.3 ± 0.4% | IC50 [2]: 310 ± 20 nM

[2-(1-adamantylimino)-3-cyclopropyl-1,3-thiazolidine-4-yl]-N-(4-n-butylphenyl)-acetamide hydrochloride [KHG24789]
FDSS (% inhibition)/10uM [1]: 78.21% | HEK293cell (% Inhibition) 10 μM [2]: 95.1 ± 0.7% | IC50 [2]: 190 ± 20 nM

[2-(1-adamantylimino)-3-cyclopropyl-1,3-thiazolidine-4-yl]-N-(4-phenoxyphenyl)-acetamide hydrochloride [KHG24800]
FDSS (% inhibition)/10uM [1]: 83.5% | HEK293cell (% Inhibition) 10 μM [2]: 95.4 ± 0.5% | IC50 [2]: 430 ± 70 nM

[2-(1-adamantylimino)-3-cyclopropyl-1,3-thiazolidine-4-yl]-N-(4-trifluoromethylphenyl)-acetamide hydrochloride [KHG24790]
FDSS (% inhibition)/10uM [1]: 73.05% | HEK293cell (% Inhibition) 10 μM [2]: 94.8 ± 0.9% | IC50 [2]: 240 ± 10 nM

[2-(1-adamantylimino)-3-ethyl-1,3-thiazolidine-4-yl]-N-(4-ethylphenyl)-acetamide hydrochloride [KHG24847]
FDSS (% inhibition)/10uM [1]: 72.23% | HEK293cell (% Inhibition) 10 μM [2]: 95.5 ± 2.7% | IC50 [2]: 350 ± 10 nM

[2-(1-adamantylimino)-3-ethyl-1,3-thiazolidine-4-yl]-N-(4-trifluoromethylphenyl)-acetamide hydrochloride [KHG24821]
FDSS (% inhibition)/10uM [1]: 73.69% | HEK293cell (% Inhibition) 10 μM [2]: 92.3 ± 1.8% | IC50 [2]: 360 ± 20 nM

[2-(1-adamantylimino)-3-n-propyl-1,3-thiazolidine-4-yl]-N-(4-chloro-2-fluorophenyl)-acetamide hydrochloride [KHG24816]
FDSS (% inhibition)/10uM [1]: 80.83% | HEK293cell (% Inhibition) 10 μM [2]: 95.6 ± 0.8% | IC50 [2]: 510 ± 10 nM

[2-(1-adamantylimino)-3-n-propyl-1,3-thiazolidine-4-yl]-N-(4-ethylphenyl)-acetamide hydrochloride [KHG24814]
FDSS (% inhibition)/10uM [1]: 76.32% | HEK293cell (% Inhibition) 10 μM [2]: 96.9 ± 1.8% | IC50 [2]: 300 ± 10 nM

[2-(1-adamantylimino)-3-n-propyl-1,3-thiazolidine-4-yl]-N-(4-fluorophenyl)-acetamide hydrochloride [KHG24811]
FDSS (% inhibition)/10uM [1]: 71.82% | HEK293cell (% Inhibition) 10 μM [2]: 94.8 ± 0.7% | IC50 [2]: 600 ± 40 nM
